Patent US11390900B2, “Antimicrobial cartridges and processes for multiplexed antimicrobial susceptibility testing” (priority 2018, dated 2022)
In brackets after ≈: the same amount, converted by molar mass. Like-named read-outs stand apart in the source and are kept apart here.

Experiments:
patient sample microbes [1] = test: AST MIC results for antimicrobial panel 1 (384-well panel from Master Plate vs 96-well panel); format: cell-based; details: for MICs obtained from panel made from Master Plate: antimicrobial panel 1, 384 well patient cartridge; for MICs obtained from 96-well Antibiotic Panel: antimicrobial panel 1, standard 96 well AST assay plate
From the text: (§1) An assay setup comprises preparation of patient (target) cartridge by dispensing antimicrobials were from the master cartridge or intermediate serial dilution cartridges into one or more 384 reservoir patient cartridge, each antimicrobial in about 7 serial dilutions in triplicate, and covering the dynamic range of each antimicrobial that is known to be effective and therefore should be reported. The dilution range included the expected minimum inhibitory concentration (MIC) for each antimicrobial. But most importantly, dilution ranges, that is, antimicrobial concentrations beyond the range known to be effective are included in the patient cartridge as per the present invention.
(§2) The remaining reservoirs of the 384 well patient cartridge are utilized for setting up test controls: a no-antimicrobial control (negative control) was included for each antimicrobial compound; and a positive control was included for each antimicrobial set, where a microorganism that is not susceptible to the antimicrobial was added to the well. Each control set was also dispensed at least in duplicate per 384 well cartridge. Additional test controls may be included as deemed necessary by one of skill in the art. Equal amount of a patient sample was dispensed to each of the wells in the cartridge, except in the wells designated for no-sample control, if included. The patient cartridge was ready for determination of susceptibility of microbes from the patient sample to the twelve antimicrobials at the range of concentrations applied, simultaneously. Multiple such plates can be set up in parallel for testing samples from multiple patients, each patient sample per plate. An AST assay was performed on the prepared patient cartridges.
(§3) First, three master plates are loaded by the user onto chilled plate holders (set to 4° C.). These consist of one Broad Spectrum, one Gram-Positive and one Gram-Negative antibiotic plate. Next the bulk reagents and pipette tips are loaded on tube rack. Master and bulk reagent pipette tips and sample dilution tray are reloaded every 12 samples. For every set of tests, up to four Patient Samples in tubes and up to four 384-well Target Plates (Patient plate) are loaded.
(§4) Antibiotics are transferred from Broad Spectrum Master Plate to Target Plate(s). Antibiotics are “stamped” according to FIG. 10A-B. The inoculator tips should be placed back in the same position of the Broad Spectrum Tip Box for use on subsequent target plates, but should only be used for same antibiotics to avoid cross contamination.
(§5) Antimicrobials are transferred from Gram-Positive OR Gram-Negative Master Plate to Target Plate(s) and the antibiotics are “stamped” according to FIG. 11A-B. The inoculator should place tips back in the same position of the correct tip box for use on subsequent target plates. Good care is taken such that any cross contamination is prevented.
(§6) Using new tips from the Sample Tip Box, 50 μL of diluted patient sample are transferred into Target Plate according to Table Four, this is done with a “jet dispense” to avoid cross contamination. After the Patient Sample has been transferred to each well on the Target Plate, the tips should be disposed of to avoid cross contamination. The above steps are repeated for each additional Patient Sample and Target Plate.
(§7) Shown in Table 6 and Table 7, MIC results for antimicrobial panels 1 and 2 respectively using a master cartridge format and a 384 well patient cartridge (column 3) agrees reliably with that run by standard 96 well AST assay plate (right hand column).

patient sample microbes [2] = details: antimicrobial panel 1, MIC range; cited from earlier work
S. aureus 29213 = details: MIC range, cited from earlier work
E. coli 25922 = details: MIC range, E. coli 25922, Gram negative panel; cited from earlier work
patient sample microbes [3] = test: AST MIC results for antimicrobial panel 2 (384-well panel from Master Plate vs 96-well panel); format: cell-based; details: for MICs obtained from panel made from Master Plate: antimicrobial panel 2, 384 well patient cartridge; for MICs obtained from 96-well Antibiotic Panel: antimicrobial panel 2, standard 96 well AST assay plate
From the text: as §1, §2, §3, §4, §5, §6, §7

[4] = system: clinical isolate of S. aureus; test: Broth microdilution reference method MIC; format: cell-based; details: Staphylococcus aureus, read-out: MICs obtained from the broth microdilution reference method
Procedure: The antibiotics shown are vancomycin, daptomycin, ceftaroline and levofloxacin, of which the MICs obtained from the broth microdilution reference method for this strain were 0.5, 0.25, 0.12, and 0.25 μg/ml, respectively. A clinical isolate of S. aureus was used. Data represents the TRF signal in RFUs. Graphs in the top row contain data from 384-well plates. Graphs in the bottom row contain data from 96-well plates.

patient sample microbes [5] = details: antimicrobial panel 2, MIC range; cited from earlier work
E. faecalis 29212 = details: MIC range, cited from earlier work
[6] = S. aureus 29213, Gram negative panel
[7] = S. aureus 29213, Gram positive panel
[8] = E. faecalis 29212, Gram positive panel
[9] = E. faecalis 29212, Gram negative panel

## NCC[C@H](O)C(=O)N[C@@H]1C[C@H](N)[C@@H](O[C@H]2O[C@H](CN)[C@@H](O)[C@H](O)[C@H]2O)[C@H](O)[C@H]1O[C@H]1O[C@H](CO)[C@@H](O)[C@H](N)[C@H]1O [Amikacin]
Patient sample microbes [1]
  MICs obtained from panel made from Master Plate: 4 µg/mL
  MICs obtained from 96-well Antibiotic Panel: 4 µg/mL
Patient sample microbes [2]
  Quality Control Range: 0.5-4
S. aureus 29213; [6]
  CLSI-Defined QC Range: 1 to 4 µg/mL

## CC[C@H]1OC(=O)[C@H](C)[C@@H](O[C@H]2C[C@@](C)(OC)[C@@H](O)[C@H](C)O2)[C@H](C)[C@@H](O[C@@H]2O[C@H](C)C[C@H](N(C)C)[C@H]2O)[C@](C)(O)C[C@@H](C)CN(C)[C@H](C)[C@@H](O)[C@]1(C)O [Azithromycin]
S. aureus 29213; [7]
  CLSI-Defined QC Range: 0.5 to 2 µg/mL

## Cc1nnc(SCC2=C(C(=O)O)N3C(=O)[C@@H](NC(=O)Cn4cnnn4)[C@H]3SC2)s1 [Cefazolin]
E. coli 25922
  CLSI-Defined QC Range: 1 to 4 µg/mL

## CO/N=C(\C(=O)N[C@@H]1C(=O)N2C(C(=O)[O-])=C(C[N+]3(C)CCCC3)CS[C@H]12)c1csc(N)n1 [Cefepime]
Patient sample microbes [1]
  MICs obtained from panel made from Master Plate: ≤ 0.25 µg/mL
  MICs obtained from 96-well Antibiotic Panel: ≤ 0.03 µg/mL
Patient sample microbes [2]
  Quality Control Range: 0.015-0.12
S. aureus 29213; [6]
  CLSI-Defined QC Range: 1 to 4 µg/mL

## CO/N=C(\C(=O)N[C@@H]1C(=O)N2C(C(=O)O)=C(COC(C)=O)CS[C@H]12)c1csc(N)n1 [Cefotaxime]
S. aureus 29213; [6]
  CLSI-Defined QC Range: 1 to 4 µg/mL

## CCO/N=C(\C(=O)N[C@@H]1C(=O)N2C(C(=O)[O-])=C(Sc3nc(-c4cc[n+](C)cc4)cs3)CS[C@H]12)c1nsc(N)n1 [Ceftaroline]
Patient sample microbes [3]
  MICs obtained from panel made from Master Plate: 0.5 µg/mL
  MICs obtained from 96-well Antibiotic Panel: 0.25 µg/mL
[4]; clinical isolate of S. aureus
  MIC: 0.12 µg/mL (≈ 0.198 µM)

## CO/N=C(\C(=O)N[C@@H]1C(=O)N2C(C(=O)O)=C(CSc3nc(=O)c(=O)[nH]n3C)CS[C@H]12)c1csc(N)n1 [Ceftriaxone]
Patient sample microbes [3]
  MICs obtained from panel made from Master Plate: 2 µg/mL
  MICs obtained from 96-well Antibiotic Panel: 4 µg/mL
Patient sample microbes [1]
  MICs obtained from panel made from Master Plate: ≤ 0.125 µg/mL
  MICs obtained from 96-well Antibiotic Panel: ≤ 0.12 µg/mL
Patient sample microbes [2]
  Quality Control Range: 0.03-0.12
Patient sample microbes [5]
  Quality Control Range: 1-8
S. aureus 29213; [6]
  CLSI-Defined QC Range: 1 to 8 µg/mL

## CO/N=C(\C(=O)N[C@@H]1C(=O)N2C(C(=O)O)=C(COC(N)=O)CS[C@H]12)c1ccco1 [Cefuroxime]
E. coli 25922
  CLSI-Defined QC Range: 2 to 8 µg/mL

## CCCCCCCCCC(=O)N[C@@H](Cc1c[nH]c2ccccc12)C(=O)N[C@H](CC(N)=O)C(=O)N[C@@H](CC(=O)O)C(=O)N[C@@H]1C(=O)NCC(=O)N[C@@H](CCCN)C(=O)N[C@@H](CC(=O)O)C(=O)N[C@H](C)C(=O)N[C@@H](CC(=O)O)C(=O)NCC(=O)N[C@H](CO)C(=O)N[C@@H]([C@H](C)CC(=O)O)C(=O)N[C@@H](CC(=O)c2ccccc2N)C(=O)O[C@@H]1C [Daptomycin]
[4]; clinical isolate of S. aureus
  MIC: 0.25 µg/mL (≈ 0.154 µM)
E. faecalis 29212; [8]
  CLSI-Defined QC Range: 1 to 4 µg/mL

## Nc1nc(-n2cc(C(=O)O)c(=O)c3cc(F)c(N4CC(O)C4)c(Cl)c32)c(F)cc1F [Delafloxacin]
E. faecalis 29212; [8]
  CLSI-Defined QC Range: 0.016 to 0.12 µg/mL

## CN(C)[C@@H]1C(O)=C(C(N)=O)C(=O)[C@@]2(O)C(O)=C3C(=O)c4c(O)c(NC(=O)CN5CCCC5)cc(F)c4C[C@H]3C[C@@H]12 [Eravacycline]
E. faecalis 29212; [8]
  CLSI-Defined QC Range: 0.016 to 0.06 µg/mL
E. coli 25922
  CLSI-Defined QC Range: 0.03 to 0.12 µg/mL

## C[C@@H](O)[C@H]1C(=O)N2C(C(=O)O)=C(S[C@@H]3CN[C@H](C(=O)Nc4cccc(C(=O)O)c4)C3)[C@H](C)[C@H]12 [Ertapenem]
S. aureus 29213; [6]
  CLSI-Defined QC Range: 0.06 to 0.25 µg/mL

## CC[C@H]1OC(=O)[C@H](C)[C@@H](O[C@H]2C[C@@](C)(OC)[C@@H](O)[C@H](C)O2)[C@H](C)[C@@H](O[C@@H]2O[C@H](C)C[C@H](N(C)C)[C@H]2O)[C@](C)(O)C[C@@H](C)C(=O)[C@H](C)[C@@H](O)[C@]1(C)O [Erythromycin]
E. faecalis 29212; [8]
  CLSI-Defined QC Range: 1 to 4 µg/mL

## C[C@H]1COc2c(N3CCN(C)CC3)c(F)cc3c(=O)c(C(=O)O)cn1c23 [Levofloxacin]
Patient sample microbes [3]
  MICs obtained from panel made from Master Plate: ≤ 0.25 µg/mL
  MICs obtained from 96-well Antibiotic Panel: 0.25 µg/mL
Patient sample microbes [1]
  MICs obtained from panel made from Master Plate: ≤ 0.25 µg/mL
  MICs obtained from 96-well Antibiotic Panel: ≤ 0.06 µg/mL
[4]; clinical isolate of S. aureus
  MIC: 0.25 µg/mL (≈ 0.692 µM)

## CC(=O)NC[C@H]1CN(c2ccc(N3CCOCC3)c(F)c2)C(=O)O1 [Linezolid]
Patient sample microbes [3]
  MICs obtained from panel made from Master Plate: 2 µg/mL
  MICs obtained from 96-well Antibiotic Panel: 2 µg/mL
Patient sample microbes [5]
  Quality Control Range: 1-4
S. aureus 29213; [7]
  CLSI-Defined QC Range: 1 to 4 µg/mL

## C[C@@H](O)[C@H]1C(=O)N2C(C(=O)O)=C(S[C@@H]3CN[C@H](C(=O)N(C)C)C3)[C@H](C)[C@H]12 [Meropenem]
E. faecalis 29212; [9]
  CLSI-Defined QC Range: 2 to 8 µg/mL

## Cc1onc(-c2ccccc2)c1C(=O)N[C@@H]1C(=O)N2[C@@H]1SC(C)(C)[C@@H]2C(=O)O [Oxacillin]
Patient sample microbes [3]
  MICs obtained from panel made from Master Plate: 0.5 µg/mL
  MICs obtained from 96-well Antibiotic Panel: 0.5 µg/mL
Patient sample microbes [5]
  Quality Control Range: 0.12-0.5
S. aureus 29213; [7]
  CLSI-Defined QC Range: 0.12 to 0.5 µg/mL

## CO[C@H]1/C=C/O[C@@]2(C)Oc3c(C)c(O)c4c(O)c(c(/C=N/N5CCN(C)CC5)c(O)c4c3C2=O)NC(=O)/C(C)=C\C=C\[C@H](C)[C@H](O)[C@@H](C)[C@@H](O)[C@@H](C)[C@H](OC(C)=O)[C@@H]1C [Rifampin]
Patient sample microbes [3]
  MICs obtained from panel made from Master Plate: ≤ 0.25 µg/mL
  MICs obtained from 96-well Antibiotic Panel: 0.004 µg/mL
Patient sample microbes [5]
  Quality Control Range: 0.004-0.015
E. faecalis 29212; [8]
  CLSI-Defined QC Range: 0.5 to 4 µg/mL

## Cn1nnc(-c2ccc(-c3ccc(N4C[C@H](CO)OC4=O)cc3F)cn2)n1 [Tedizolid]
Patient sample microbes [3]
  MICs obtained from panel made from Master Plate: 0.25 µg/mL
  MICs obtained from 96-well Antibiotic Panel: 0.5 µg/mL
Patient sample microbes [5]
  Quality Control Range: 0.25-1

## NC[C@H]1O[C@H](O[C@H]2[C@H](O)[C@@H](O[C@H]3O[C@H](CO)[C@@H](O)[C@H](N)[C@H]3O)[C@H](N)C[C@@H]2N)[C@H](N)C[C@@H]1O [Tobramycin]
Patient sample microbes [1]
  MICs obtained from panel made from Master Plate: 0.5 µg/mL
  MICs obtained from 96-well Antibiotic Panel: 1 µg/mL
Patient sample microbes [2]
  Quality Control Range: 0.25-1
E. faecalis 29212; [9]
  CLSI-Defined QC Range: 8 to 32 µg/mL

## COc1cc(Cc2cnc(N)nc2N)cc(OC)c1OC [Trimethoprim]
S. aureus 29213; [7]
  CLSI-Defined QC Range: 1 to 4 µg/mL

## CN[C@H](CC(C)C)C(=O)N[C@H]1C(=O)N[C@@H](CC(N)=O)C(=O)N[C@H]2C(=O)N[C@H]3C(=O)N[C@H](C(=O)N[C@H](C(=O)O)c4cc(O)cc(O)c4-c4cc3ccc4O)[C@H](O)c3ccc(c(Cl)c3)Oc3cc2cc(c3O[C@@H]2O[C@H](CO)[C@@H](O)[C@H](O)[C@H]2O[C@H]2C[C@](C)(N)[C@H](O)[C@H](C)O2)Oc2ccc(cc2Cl)[C@H]1O [Vancomycin]
[4]
  MIC: 0.5 µg/mL (≈ 0.345 µM)
S. aureus 29213; [7]
  CLSI-Defined QC Range: 0.5 to 2 µg/mL

## Penicillin
S. aureus 29213; [7]
  CLSI-Defined QC Range: 0.25 to 2 µg/mL
